{
  "source": "patent US20250326708A1",
  "about": "“LONG-ACTING SPLEEN-TARGETING CATIONIC LIPID COMPOUND COMPRISING BENZENE RING STRUCTURE, COMPOSITION COMPRISING SAME, AND USE THEREOF” (Beijing Youcarekechuang Pharmaceutical Technology Co., Ltd., priority 2024, published 2025)",
  "key": {"[1]": {"tested_on": "293T cells", "assay": "Fluorescence detection of Fluc-mRNA (transfection efficiency) of LNP preparations", "type": "cell-based", "details": "Fluc-mRNA LNP", "outline": "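293T cells seeded at 10,000 per well in 96-well plates overnight, then dosed with LNPs (cationic lipid:DSPC:cholesterol:DMG-PEG2000 49:10:39.5:1.5 molar; total lipid:mRNA 15:1 w/w) carrying 0.3 μg Fluc-mRNA. After 24 h, luciferase kit reagents added and fluorescence intensity per well read by IVIS imaging.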"}, "[2]": {"tested_on": "293T cells", "assay": "Cell viability assay (CCK-8) with LNP preparations of Fluc-mRNA", "type": "cell-based", "outline": "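293T cells seeded at 10,000/well and cultured overnight, then given LNPs (cationic lipid:DSPC:cholesterol:DMG-PEG2000 49:10:39.5:1.5) carrying 1.5 μg Fluc-mRNA. After 24 h, viability measured by CCK-8 with 1 h incubation.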"}, "[3]": {"tested_on": "female BALB/C mice", "assay": "Expression of delivered mRNA in mice in vivo (IVIS in vivo imaging)", "details": "10 μg Fluc-mRNA via tail vein", "outline": "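Female BALB/c mice (4–6 weeks, 17–19 g) received LNPs carrying 10 μg Fluc-mRNA via tail vein. At 6 h, 24 h, 48 h and 7 d, imaging substrate was given i.p. and, after 5 min, average radiance was measured by IVIS Spectrum imaging.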"}, "[4]": {"tested_on": "female BALB/C mice", "assay": "Expression of delivered mRNA in different organs of mice (organ imaging)", "type": "in vivo", "method": "LNP preparations containing 5 μg of Fluc-mRNA were subcutaneously injected into female BALB/C mice (4 to 6 weeks old, weighing 17 to 19 g). At specified time points after administration (6 h), the mice were intraperitoneally injected with fluorescent imaging substrates and allowed to move freely for 5 minutes. The average radiation intensity (corresponding to fluorescence intensity) of proteins expressed by the mRNA delivered by the LNP preparations in the mice in vivo was then detected using the IVIS Spectrum small-animal in vivo imaging system. After sampling, the mice were killed by cervical dislocation and dissected, and the internal organs: heart, liver, spleen, lung, kidney, and lymph of mice were accurately isolated. The average radiation intensity (corresponding to fluorescence intensity) of proteins expressed by the mRNA delivered by the LNP preparations in various organs of mice was then detected using the IVIS Spectrum small-animal in vivo imaging system."}, "[5]": {"assay": "Particle size and polydispersity index (PDI) of lipid nanoparticles, dynamic light scattering", "type": "physicochemical", "details": "LNP preparation with the named cationic lipid; 90° scattering angle, 25° C", "outline": "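LNPs of cationic lipid:DSPC:cholesterol:DMG-PEG2000 (49:10:39.5:1.5 molar) encapsulating eGFP or Fluc mRNA at 15:1 lipid:mRNA weight ratio, made by ethanol injection into citrate buffer pH 4–5, sonication, and ultrafiltration into PBS. Size and PDI by DLS at 90° and 25° C after dilution in water, three measurements per sample.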"}, "[6]": {"details": "6 hours after 5 μg Fluc-mRNA subcutaneously"}},
  "note": "Where “and” joins values, the source holds several entries; their conditions need not be identical. Equal values may be shown once.",
  "data": [
    {"smiles": "CCCCCCCCCCC(CCCCCCCC)COC(=O)CCCCCNC(CO)(CO)CCc1ccc(CCCCCCCC)cc1", "note": "(centres unmarked) [YK-912, 2-octyldodecyl 6-((1-hydroxy-2-(hydroxymethyl)-4-(4-octylphenyl)butan-2-yl)amino) hexanoate]", "values": [
      {"measurement": "Cellular transfection efficiency, times that of HHMA", "setting": "[1]; vs HHMA", "value": 5.65, "unit": "times"},
      {"measurement": "Cellular transfection efficiency, times that of I-1", "setting": "[1]; vs I-1", "value": 28.16, "unit": "times"},
      {"measurement": "Cellular transfection efficiency, times that of Lipofectamine 3000", "setting": "[1]; vs Lipofectamine 3000", "value": 6.77, "unit": "times"},
      {"measurement": "Cellular transfection efficiency, times that of MC3", "setting": "[1]; vs MC3", "value": 60.16, "unit": "times"},
      {"measurement": "Cellular transfection efficiency, times that of SM-102", "setting": "[1]; vs SM-102", "value": 4.00, "unit": "times"},
      {"measurement": "Cellular transfection efficiency, times that of YK-501", "setting": "[1]; vs YK-501", "value": 123.46, "unit": "times"},
      {"measurement": "Cellular transfection efficiency, times that of YK-506", "setting": "[1]; vs YK-506", "value": 8.73, "unit": "times"},
      {"measurement": "Cellular transfection efficiency, times that of YK-901", "setting": "[1]; vs YK-901", "value": "131 times and 131.47 times"},
      {"measurement": "Cellular transfection efficiency, times that of YK-902", "setting": "[1]; vs YK-902", "value": 18.35, "unit": "times"},
      {"measurement": "Cellular transfection efficiency, times that of YK-903", "setting": "[1]; vs YK-903", "value": "228 times and 228.30 times"},
      {"measurement": "Cellular transfection efficiency, times that of YK-904", "setting": "[1]; vs YK-904", "value": 45.65, "unit": "times"},
      {"measurement": "Cellular transfection efficiency, times that of YK-905", "setting": "[1]; vs YK-905", "value": 78.83, "unit": "times"},
      {"measurement": "Cellular transfection efficiency, times that of YK-911", "setting": "[1]; vs YK-911", "value": 4.39, "unit": "times"},
      {"measurement": "Cellular transfection efficiency, times that of compound 7", "setting": "[1]; vs compound 7", "value": 22.17, "unit": "times"},
      {"measurement": "Cell viability", "setting": "[2]; LNP with 1.5 μg Fluc-mRNA, 24 hours, CCK-8", "value": 87, "unit": "%"},
      {"measurement": "Cell viability higher than that of YK-901", "setting": "[2]; difference vs YK-901", "value": 29, "unit": "%"},
      {"measurement": "Cell viability higher than that of YK-902", "setting": "[2]; difference vs YK-902", "value": 51, "unit": "%"},
      {"measurement": "Cell viability higher than that of YK-903", "setting": "[2]; difference vs YK-903", "value": 40, "unit": "%"},
      {"measurement": "Cell viability higher than that of YK-904", "setting": "[2]; difference vs YK-904", "value": 35, "unit": "%"},
      {"measurement": "Cell viability higher than that of YK-905", "setting": "[2]; difference vs YK-905", "value": 36, "unit": "%"},
      {"measurement": "Cell viability higher than that of YK-911", "setting": "[2]; difference vs YK-911", "value": 25, "unit": "%"},
      {"measurement": "Average radiation intensity, in vivo imaging", "setting": "[3]; 6 h", "value": 7543664},
      {"measurement": "Average radiation intensity, in vivo imaging", "setting": "[3]; 24 h", "value": 932533},
      {"measurement": "Average radiation intensity, in vivo imaging", "setting": "[3]; 48 h", "value": 354363},
      {"measurement": "Average radiation intensity, in vivo imaging", "setting": "[3]; 7 d", "value": 56756},
      {"measurement": "Average radiation intensity of mouse organs: Heart", "setting": "[4]; [6]", "value": 0},
      {"measurement": "Average radiation intensity of mouse organs: Kidney", "setting": "[4]; [6]", "value": 0},
      {"measurement": "Average radiation intensity of mouse organs: Lung", "setting": "[4]; [6]", "value": 0},
      {"measurement": "Average radiation intensity of mouse organs: Lymph", "setting": "[4]; [6]", "value": 0},
      {"measurement": "Average radiation intensity of mouse organs: Spleen", "setting": "[4]; [6]", "value": 175366},
      {"measurement": "Expression level of mRNA in the spleen, times that of SM-102", "setting": "[4]; spleen, 6 h, vs SM-102", "value": 6.86, "unit": "times"},
      {"measurement": "Expression level of mRNA in the spleen, times that of YK-501", "setting": "[4]; spleen, 6 h, vs YK-501", "value": 12.33, "unit": "times"},
      {"measurement": "Expression level of mRNA in the spleen, times that of YK-506", "setting": "[4]; spleen, 6 h, vs YK-506", "value": 2.46, "unit": "times"},
      {"measurement": "PDI", "setting": "[5]", "value": 9.5, "unit": "%"},
      {"measurement": "Particle size", "setting": "[5]", "value": 123, "unit": "nm"}
    ]}
  ]
}
